Source: US7297700B2, “Bicycloheteroaryl compounds as P2X7 modulators and uses thereof” (Renovis, Inc., priority 2005, dated 2007)

tested on: IL-1β release from THP-1 cells; experiment: IL-1β Release Assay (Alternate Method), THP-1 cells; assay type: cell-based, human; conditions: Homo sapiens, THP-1, read-out: IL-1β % inhibition
Method: THP-1 cells (ATCC Cat #285-IF-100) are plated in 96 well plates at a concentration of 200,000 cells per well and allowed to differentiate in RPMI-1640 media (ATCC Cat #30-2001) containing 10% FBS, 100 IU/mL penicillin, 100 ug/mL streptomycin, 100 ng/mL LPS and 100 ng/mL IFN-γ for 16 hours. Following differentiation, the cells are treated for an additional 2 hours in RPMI-1640 media containing 100 IU/mL penicillin, 100 ug/mL streptomycin and fresh LPS at 100 ng/mL. The cells are then pretreated for 30 minutes with the compound of interest at the appropriate concentration in RPMI media containing 100 IU/mL penicillin, 100 ug/mL streptomycin. Following the pretreatment 2′, 3′-O-(4-benzoylbenzoyl)-adenosine 5′-triphosphate (Sigma Aldrich Cat#B6396) is added to a final concentration of 250 uM and the cells incubated for an additional 45 minutes. 30 uL of cell supernatant is then collected and IL-1β levels determined via ELISA (R&D systems Cat. #HSLB50) according to manufacturer's recommendations using the Tecan Safire plate reader. Background adjusted IL-1β levels of drug treated and non-treated cells are used to calculate the percent inhibition.

SMILES	inhibition at 0.3 µM
O=C(CC12CC3CC(CC(C3)C1)C2)Nc1ncnc2c1CCN(Cc1ccccc1)C2 [Compound 5, 2-Adamantan-1-yl-N-(7-benzyl-5,6,7,8-tetrahydro-pyrido[3,4-d]pyrimidin-4-yl)-acetamide]	25 to 50%
O=C(CC12CC3CC(CC(C3)C1)C2)Nc1ncnc2c1CCN(CCO)C2 [Compound 18, 2-Adamantan-1-yl-N-[7-(2-hydroxy-ethyl)-5,6,7,8-tetrahydro-pyrido[3,4-d]pyrimidin-4-yl]-acetamide]	0 to 25%
O=C(CC12CC3CC(CC(C3)C1)C2)Nc1ncnc2c1CCN(CCCO)C2 [Compound 19, 2-adamantan-1-yl-N-[7-(3-hydroxy-propyl)-5,6,7,8-tetrahydro-pyrido[3,4-d]pyrimidin-4-yl]-acetamide]	0 to 25%
O=C(CC12CC3CC(CC(C3)C1)C2)Nc1ncnc2c1CCN(CC(O)CO)C2 (stereo not shown) [Compound 23, 2-Adamantan-1-yl-N-[7-(2,3-dihydroxy-propyl)-5,6,7,8-tetrahydro-pyrido[3,4-d]pyrimidin-4-yl]-acetamide]	0 to 25%

same assay, conditions: Homo sapiens; at 0.3 μM; THP-1 cells; read-out: IL-1β % inhibition

SMILES	inhibition at 0.3 µM
O=C(CC12CC3CC(CC(C3)C1)C2)Nc1ncnc2c1CCNC2 [Compound 6, 2-Adamantan-1-yl-N-(5,6,7,8-tetrahydro-pyrido[3,4-d]pyrimidin-4-yl)-acetamide]	0 to 25%
COCC(O)CN1CCc2c(ncnc2NC(=O)CC23CC4CC(CC(C4)C2)C3)C1 (stereo not shown) [Compound 13, 2-adamantan-1-yl-N-[7-(2-hydroxy-3-methoxy-propyl)-5,6,7,8-tetrahydro-pyrido[3,4-d]pyrimidin-4-yl]-acetamide]	0 to 25%
O=C(NCC12CC3CC(CC(C3)C1)C2)c1ncnc2c1CCN(Cc1ccccc1)C2 [Compound 17, 7-Benzyl-N-adamantylmethyl-5,6,7,8-tetrahydropyrido[3,4-d]pyrimidine-4-carboxamide]	> 75%
O=C(CC12CC3CC(CC(C3)C1)C2)Nc1ncnc2c1CCN(Cc1ccc3c(c1)OCCO3)C2 [Compound 46]	> 75%

same assay, conditions: at 0.3 μM; THP-1 cells

SMILES	IL-1β % inhibition
O=C(NCCc1ccccc1Cl)c1ncnc2c1CCN(Cc1ccccc1)C2 [Compound 1]	+ (compound exhibited 0-25% inhibition at 0.3 μM)
O=C(NCC1CCCCC1)c1ncnc2c1CCNC2 [Compound 2]	+ (compound exhibited 0-25% inhibition at 0.3 μM)
O=C(NCCc1ccccc1)c1ncnc2c1CCNC2 [Compound 3]	+ (compound exhibited 0-25% inhibition at 0.3 μM)
O=C(NCC1CCCCC1)c1ncnc2c1CCN(Cc1ccccc1)C2 [Compound 4]	+ (compound exhibited 0-25% inhibition at 0.3 μM)
CN1CCc2c(ncnc2NC(=O)CC23CC4CC(CC(C4)C2)C3)C1 [Compound 7]	+ (compound exhibited 0-25% inhibition at 0.3 μM)
CCN1CCc2c(ncnc2NC(=O)CC23CC4CC(CC(C4)C2)C3)C1 [Compound 8]	+ (compound exhibited 0-25% inhibition at 0.3 μM)
O=C(CC1CCCCC1)Nc1ncnc2c1CCN(Cc1ccccc1)C2 [Compound 9]	+ (compound exhibited 0-25% inhibition at 0.3 μM)
O=C(CC1CCCCC1)Nc1ncnc2c1CCNC2 [Compound 11]	+ (compound exhibited 0-25% inhibition at 0.3 μM)
O=C(CC1CCCCCC1)Nc1ncnc2c1CCNC2 [Compound 12]	+ (compound exhibited 0-25% inhibition at 0.3 μM)
O=C(CC12CC3CC(CC(C3)C1)C2)Nc1ncnc2c1CCN(CCc1ccccc1)C2 [Compound 14]	+ (compound exhibited 0-25% inhibition at 0.3 μM)
CS(=O)(=O)c1ccc(CN2CCc3c(ncnc3NC(=O)CC34CC5CC(CC(C5)C3)C4)C2)cc1 [Compound 15]	+ (compound exhibited 0-25% inhibition at 0.3 μM)
O=C(CC12CC3CC(CC(C3)C1)C2)Nc1ncnc2c1CCN(Cc1cccnc1)C2 [Compound 16]	+ (compound exhibited 0-25% inhibition at 0.3 μM)
CCN1CCc2c(ncnc2NC(=O)CC2CCCCC2)C1 [Compound 20]	+ (compound exhibited 0-25% inhibition at 0.3 μM)
O=C(CC1CCCCC1)Nc1ncnc2c1CCN(CCCO)C2 [Compound 21]	+ (compound exhibited 0-25% inhibition at 0.3 μM)
O=C(CC1CCCCC1)Nc1ncnc2c1CCN(CCO)C2 [Compound 22]	+ (compound exhibited 0-25% inhibition at 0.3 μM)
COc1ccccc1CCC(=O)Nc1ncnc2c1CCN(Cc1ccccc1)C2 [Compound 24]	+ (compound exhibited 0-25% inhibition at 0.3 μM)
COc1ccccc1CCC(=O)Nc1ncnc2c1CCNC2 [Compound 25]	+ (compound exhibited 0-25% inhibition at 0.3 μM)
CN1CCc2c(ncnc2NC(=O)CC2CCCCC2)C1 [Compound 26]	+++ (compound exhibited 50-75% inhibition at 0.3 μM)
O=C(CC12CC3CC(CC(C3)C1)C2)Nc1ncnc2c1CCN(Cc1ccccc1Cl)C2 [Compound 27]	+++ (compound exhibited 50-75% inhibition at 0.3 μM)
O=C(CC12CC3CC(CC(C3)C1)C2)Nc1ncnc2c1CCN(Cc1ccccc1F)C2 [Compound 28]	++++ (compound exhibited 75% or greater inhibition at 0.3 μM)
COc1ccccc1CN1CCc2c(ncnc2NC(=O)CC23CC4CC(CC(C4)C2)C3)C1 [Compound 29]	+ (compound exhibited 0-25% inhibition at 0.3 μM)
COc1ccc(CN2CCc3c(ncnc3NC(=O)CC34CC5CC(CC(C5)C3)C4)C2)c(OC)c1 [Compound 30]	++++ (compound exhibited 75% or greater inhibition at 0.3 μM)

SMILES	IL-1β % inhibition
Cc1ccccc1CN1CCc2c(ncnc2NC(=O)CC23CC4CC(CC(C4)C2)C3)C1 [Compound 31]	+++ (compound exhibited 50-75% inhibition at 0.3 μM)
Cc1ccc(C)c(CN2CCc3c(ncnc3NC(=O)CC34CC5CC(CC(C5)C3)C4)C2)c1 [Compound 32]	+ (compound exhibited 0-25% inhibition at 0.3 μM)
O=C(CC12CC3CC(CC(C3)C1)C2)Nc1ncnc2c1CCN(Cc1cccc(F)c1)C2 [Compound 33]	+ (compound exhibited 0-25% inhibition at 0.3 μM)
O=C(CC12CC3CC(CC(C3)C1)C2)Nc1ncnc2c1CCN(Cc1cccc(Cl)c1)C2 [Compound 34]	+ (compound exhibited 0-25% inhibition at 0.3 μM)
COc1cccc(CN2CCc3c(ncnc3NC(=O)CC34CC5CC(CC(C5)C3)C4)C2)c1 [Compound 35]	+++ (compound exhibited 50-75% inhibition at 0.3 μM)
COc1ccc(CN2CCc3c(ncnc3NC(=O)CC34CC5CC(CC(C5)C3)C4)C2)cc1OC [Compound 36]	+ (compound exhibited 0-25% inhibition at 0.3 μM)
COc1cc(CN2CCc3c(ncnc3NC(=O)CC34CC5CC(CC(C5)C3)C4)C2)cc(OC)c1 [Compound 37]	+ (compound exhibited 0-25% inhibition at 0.3 μM)
Cc1cccc(CN2CCc3c(ncnc3NC(=O)CC34CC5CC(CC(C5)C3)C4)C2)c1 [Compound 38]	+ (compound exhibited 0-25% inhibition at 0.3 μM)
COc1ccc(CN2CCc3c(ncnc3NC(=O)CC34CC5CC(CC(C5)C3)C4)C2)cc1C [Compound 39]	+ (compound exhibited 0-25% inhibition at 0.3 μM)
COc1ccc(CN2CCc3c(ncnc3NC(=O)CC34CC5CC(CC(C5)C3)C4)C2)cc1 [Compound 40]	+ (compound exhibited 0-25% inhibition at 0.3 μM)
O=C(CC12CC3CC(CC(C3)C1)C2)Nc1ncnc2c1CCN(Cc1ccc(Cl)cc1)C2 [Compound 41]	+ (compound exhibited 0-25% inhibition at 0.3 μM)
N#Cc1ccc(CN2CCc3c(ncnc3NC(=O)CC34CC5CC(CC(C5)C3)C4)C2)cc1 [Compound 42]	+ (compound exhibited 0-25% inhibition at 0.3 μM)
O=C(CC12CC3CC(CC(C3)C1)C2)Nc1ncnc2c1CCN(Cc1ccncc1)C2 [Compound 43]	+ (compound exhibited 0-25% inhibition at 0.3 μM)
Cc1ccc(CN2CCc3c(ncnc3NC(=O)CC34CC5CC(CC(C5)C3)C4)C2)cc1 [Compound 44]	+ (compound exhibited 0-25% inhibition at 0.3 μM)
CCc1ccc(CN2CCc3c(ncnc3NC(=O)CC34CC5CC(CC(C5)C3)C4)C2)cc1 [Compound 45]	+ (compound exhibited 0-25% inhibition at 0.3 μM)
O=C(CC12CC3CC(CC(C3)C1)C2)Nc1ncnc2c1CCN(Cc1ccc(F)cc1F)C2 [Compound 47]	++++ (compound exhibited 75% or greater inhibition at 0.3 μM)
O=C(NCC1CCCCC1)c1ncnc2c1CCN(Cc1cccnc1)C2 [Compound 48]	+ (compound exhibited 0-25% inhibition at 0.3 μM)
O=C(NCC1CCCCC1)c1ncnc2c1CCN(Cc1ccncc1)C2 [Compound 49]	+ (compound exhibited 0-25% inhibition at 0.3 μM)
O=C(NCC1CCCCC1)c1ncnc2c1CCN(Cc1ccccc1Cl)C2 [Compound 50]	+ (compound exhibited 0-25% inhibition at 0.3 μM)
O=C(NCC1CCCCC1)c1ncnc2c1CCN(Cc1ccc(Cl)cc1)C2 [Compound 51]	+ (compound exhibited 0-25% inhibition at 0.3 μM)
O=C(NCC1CCCCC1)c1ncnc2c1CCN(Cc1ccccn1)C2 [Compound 52]	+ (compound exhibited 0-25% inhibition at 0.3 μM)

same assay, conditions: at 0.3 μM; THP-1 cells, BzATP-stimulated

SMILES	IL-1β % inhibition
O=C(C1COc2ccccc2C1)N1CCc2c(ncnc2NC(=O)C23CC4CC(CC(C4)C2)C3)C1 (racemic) [Compound 477]	++ (compound exhibited 25-50% inhibition at 0.3 μM)
